According to patent US11731976B2, “3-(ethoxydifluoromethyl)-6-(5-fluoro-6-(2,2,2-trifluoroethoxy)pyridin-3-yl)-[1,2,4]triazolo[4,3-a]pyridine as an ion channel modulator” (Praxis Precision Medicines, Inc., priority 2018, dated 2023):

Experiments:
[1] = target: T1, human NaV 1.2 (h NaV 1.2) (Homo sapiens, UniProt Q99250); assay: Modulation of late sodium current (INaL), PatchXpress electrophysiology, HEK-293 cells expressing hNaV1.2; format: cell-based; details: HEK293, read-out: NaV 1.2 Assay Data: percent inhibition of INaL at hNaV1.2
T1 construct: expressed in transfected cells; host or cells: HEK-293

[2] = system: Male CD-1 mice; assay: Maximal Electroshock induced Seizure (MES) assay in mice; format: in vivo, mouse; details: 35% HPCD, pre-treatment 30 min, recorded up to 60 seconds post stimulus
Protocol: Male CD-1 mice, weighing 25-35 g were assessed in the Maximal Electroshock induced Seizure (MES) assay. Briefly, mice were dosed with compound (n=12/group) according to the dosing parameters in Table 20 and the latency to induce tonic hind limb extension following transauricular electrical stimulation (50 Hz, 50 mA, 0.8 sec duration, pulse width of 10 ins) was recorded up to 60 seconds post stimulus.

[3] = target: T2, hNaV1.6-R223G (Homo sapiens, UniProt Q9UQD0, R223G); assay: Voltage ramp activated sodium current (Ramp INa), PatchXpress, HEK-293; format: cell-based; details: HEK293; percent inhibition of enhanced ramp current at 1 μM; +600 mv/sec ramp from −100 mV to +20 mV
T2 construct: expressed in transfected cells; host or cells: HEK-293
Protocol: (§1) Functional characterization of exemplary compounds to modulate INa expressed by various human isoforms and disease-causing mutant voltage-gated sodium channels was accomplished using the PatchXpress high throughput electrophysiology platform (Molecular Devices, Sunnyvale, Calif.). HEK-293 cells expressing a recombinant, human NaV1.X sodium channel (either hNaV1.6-WT, hNaV1.6-R223G, hNaV1.6-N984K, hNaV1.6-N1768D, hNaV1.1-WT, hNaV1.2-WT, hNaV1.5-WT, hNaV1.7-WT, or hNaV1.8-WT) were grown in DMEM/high-glucose Dulbecco's modified, 10% FBS, 2 mM sodium pyruvate, 10 mM HEPES and 400 μg/mL G418. Cells were grown to 50%-80% confluency prior to harvesting. Trypsinized cells were washed, allowed to recover for 1 hour and then resuspended in extracellular recording solution at a concentration of 1×10^6 cells/ml. The onboard liquid handling facility of the PatchXpress was used for dispensing cells and applying test compounds. INa amplitude and stability were determined by analyzing the peak current amplitude.
(§2) The Nav1.6 mutant channels (hNaV1.6-R223G, hNaV1.6-N984K, hNaV1.6-N1768D) express an enhanced sodium current in response to a ramp voltage depolarization when compared to the wild-type hNaV1.6-WT. This enhanced, depolarizing ramp current is thought to contribute to enhanced neuronal excitability. The degree of block with exemplary compounds (e.g., as described herein) was measured using a +600 mv/sec voltage ramp from −100 mV to +20 mV. The ramp current was defined as the area of the current measured between −55 mV and +15 mV. Following steady state block with exemplary compounds (e.g., as described herein) at 1 μM, a Na^+ free solution containing an impermeant cation (e.g., Choline or NMDG) was added for determination of the baseline current level for offline subtraction. Percent inhibition of enhanced ramp current was calculated as (compound−baseline)/(control−baseline)*100, where control represents the ramp current recorded in the absence of compound. In this table, “A” indicates inhibition between less than 0% to 50% and “B” indicates inhibition of greater than 50% and N/A indicates the compound was not tested.

[4] = target: T3, hNaV1.6-N984K (Homo sapiens, UniProt Q9UQD0, N984K); assay: as above; format: cell-based; details: HEK293; percent inhibition of enhanced ramp current at 1 μM; +600 mv/sec ramp from −100 mV to +20 mV
T3 construct: expressed in transfected cells; host or cells: HEK-293
Protocol: as §1, §2

[5] = target: T4, hNaV1.6-N1768D (Homo sapiens, UniProt Q9UQD0, N1768D); assay: as above; format: cell-based; details: HEK293; percent inhibition of enhanced ramp current at 1 μM; +600 mv/sec ramp from −100 mV to +20 mV
T4 construct: expressed in transfected cells; host or cells: HEK-293
Protocol: as §1, §2

[6] = target: T5, human NaV1.6 (hNaV1.6) (Homo sapiens, UniProt Q9UQD0); assay: Modulation of late sodium current (INaL), PatchXpress electrophysiology, HEK-293 cells expressing hNaV1.6; format: cell-based; details: HEK293, late current evoked by 300 nM ATX-II, read-out: NaV 1.6 Assay Data: percent inhibition of INaL at hNaV1.6
T5 construct: expressed in transfected cells; host or cells: HEK-293
Method in brief: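 PatchXpress automated patch clamp on HEK-293 cells expressing recombinant hNaV1.6; late current enhanced with 300 nM ATX-II. INaL evoked by 200 ms steps to 0 mV from about −120 mV at 0.1 Hz, measured as mean amplitude over the final 20 ms. Percent steady-state inhibition versus control current.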

[7] = target: T6, hNaV1.2-WT (Homo sapiens, UniProt Q99250); assay: Voltage step activated sodium current (Peak INa), PatchXpress, HEK-293; format: cell-based; details: percent inhibition measured at 1 μM; step to 0 mV from half-inactivation holding potential
T6 construct: expressed in transfected cells; host or cells: HEK-293
Protocol: as §1
(§3) Peak INa was evoked by depolarizing steps to 0 mV for 20 ms from a holding potential which evoked half-inactivation (e.g., −60 mV) at a frequency of 0.1 Hz. The voltage of half-inactivation was determined for each cell using a 5 sec prepulse to membrane potentials between −120 mV and −20 mV followed immediately by a voltage step to a fully activating membrane voltage (e.g., 0 mV). Following steady state block with exemplary compounds (e.g., as described herein), the degree of inhibition was measured using the average of three consecutive voltage steps. Percent steady-state inhibition of INa was calculated as: [(INa_compound)/(INa_control)]*100, where INa_compound and INa_control represent INa recorded in the presence or absence of compound, respectively.
(§4) In this table, “A” indicates inhibition between less than 0% to 50% and “B” indicates inhibition of greater than 50% and N/A indicates the compound was not tested.

[8] = target: T7, hNaV1.1-WT (Homo sapiens, UniProt P35498); assay: as above; format: cell-based; details: percent inhibition measured at 1 μM; step to 0 mV from half-inactivation holding potential
T7 construct: expressed in transfected cells; host or cells: HEK-293
Protocol: as §1, §3, §4

[9] = target: T8, hNaV1.6-WT (Homo sapiens, UniProt Q9UQD0); assay: as above; format: cell-based; details: HEK293; percent inhibition measured at 1 μM; step to 0 mV from half-inactivation holding potential
T8 construct: expressed in transfected cells; host or cells: HEK-293
Protocol: as §1, §3, §4

[10] = target: T9, hNaV1.8-WT (Homo sapiens, UniProt Q9Y5Y9); assay: as above; format: cell-based; details: HEK293; percent inhibition measured at 1 μM; step to 0 mV from half-inactivation holding potential
T9 construct: expressed in transfected cells; host or cells: HEK-293
Protocol: as §1, §3, §4

[11] = target: T10, hNaV1.7-WT (Homo sapiens, UniProt Q15858); assay: as above; format: cell-based; details: HEK293; percent inhibition measured at 1 μM; step to 0 mV from half-inactivation holding potential
T10 construct: expressed in transfected cells; host or cells: HEK-293
Protocol: as §1, §3, §4

[12] = target: T11, hNaV1.5-WT (Homo sapiens, UniProt Q14524); assay: as above; format: cell-based; details: HEK293; percent inhibition measured at 1 μM; step to 0 mV from half-inactivation holding potential
T11 construct: expressed in transfected cells; host or cells: HEK-293
Protocol: as §1, §3, §4

T4 sequence (Q9UQD0 whole entry N1768D): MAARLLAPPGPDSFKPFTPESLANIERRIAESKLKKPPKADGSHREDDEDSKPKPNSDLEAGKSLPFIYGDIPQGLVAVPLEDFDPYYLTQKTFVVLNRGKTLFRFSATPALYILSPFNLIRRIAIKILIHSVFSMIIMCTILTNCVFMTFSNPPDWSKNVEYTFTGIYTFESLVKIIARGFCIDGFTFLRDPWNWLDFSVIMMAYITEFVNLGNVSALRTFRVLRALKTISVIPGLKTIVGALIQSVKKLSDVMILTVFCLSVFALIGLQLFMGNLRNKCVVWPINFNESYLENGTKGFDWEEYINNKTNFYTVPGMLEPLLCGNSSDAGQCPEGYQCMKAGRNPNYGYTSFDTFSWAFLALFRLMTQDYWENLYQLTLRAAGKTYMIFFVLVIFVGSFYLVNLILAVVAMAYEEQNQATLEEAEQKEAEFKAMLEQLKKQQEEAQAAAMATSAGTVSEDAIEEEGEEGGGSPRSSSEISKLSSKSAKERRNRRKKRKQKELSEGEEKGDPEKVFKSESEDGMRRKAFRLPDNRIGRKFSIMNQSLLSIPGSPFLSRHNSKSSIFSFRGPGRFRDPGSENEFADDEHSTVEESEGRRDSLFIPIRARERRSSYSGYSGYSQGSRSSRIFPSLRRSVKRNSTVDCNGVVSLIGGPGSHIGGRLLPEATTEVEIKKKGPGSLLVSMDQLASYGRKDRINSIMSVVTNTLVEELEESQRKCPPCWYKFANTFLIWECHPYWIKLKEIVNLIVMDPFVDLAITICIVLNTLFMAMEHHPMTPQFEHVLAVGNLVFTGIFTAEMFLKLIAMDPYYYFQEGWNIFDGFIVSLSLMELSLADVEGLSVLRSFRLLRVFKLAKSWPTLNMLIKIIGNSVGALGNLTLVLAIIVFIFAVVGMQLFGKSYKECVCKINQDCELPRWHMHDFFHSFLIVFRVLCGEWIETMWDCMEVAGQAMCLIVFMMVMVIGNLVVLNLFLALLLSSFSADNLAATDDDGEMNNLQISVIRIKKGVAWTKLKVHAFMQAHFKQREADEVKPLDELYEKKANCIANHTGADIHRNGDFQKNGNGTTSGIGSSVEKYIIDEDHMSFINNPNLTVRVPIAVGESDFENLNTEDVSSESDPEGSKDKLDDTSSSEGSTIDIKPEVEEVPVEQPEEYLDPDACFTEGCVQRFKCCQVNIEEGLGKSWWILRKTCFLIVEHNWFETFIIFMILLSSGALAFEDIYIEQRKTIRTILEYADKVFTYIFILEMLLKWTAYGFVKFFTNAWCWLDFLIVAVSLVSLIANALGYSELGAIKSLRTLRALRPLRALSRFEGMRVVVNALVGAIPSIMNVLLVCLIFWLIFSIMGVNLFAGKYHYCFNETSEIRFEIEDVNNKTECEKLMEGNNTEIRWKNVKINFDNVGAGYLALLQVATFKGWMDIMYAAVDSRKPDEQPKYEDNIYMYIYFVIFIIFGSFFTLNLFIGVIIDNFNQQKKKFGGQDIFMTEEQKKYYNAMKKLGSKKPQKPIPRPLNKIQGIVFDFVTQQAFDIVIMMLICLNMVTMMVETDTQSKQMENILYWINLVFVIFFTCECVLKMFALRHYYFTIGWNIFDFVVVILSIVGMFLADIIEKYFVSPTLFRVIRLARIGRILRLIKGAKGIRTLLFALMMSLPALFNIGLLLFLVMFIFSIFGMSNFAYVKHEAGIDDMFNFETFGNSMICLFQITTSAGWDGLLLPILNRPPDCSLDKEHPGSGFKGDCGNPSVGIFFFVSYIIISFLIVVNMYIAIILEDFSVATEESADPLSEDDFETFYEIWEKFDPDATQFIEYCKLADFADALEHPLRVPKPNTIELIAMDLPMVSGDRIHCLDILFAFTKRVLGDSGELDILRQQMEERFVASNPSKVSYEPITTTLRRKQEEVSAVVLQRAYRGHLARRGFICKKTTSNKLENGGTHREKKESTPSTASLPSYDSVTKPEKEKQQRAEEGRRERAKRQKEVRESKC
T9 sequence (Q9Y5Y9 whole entry): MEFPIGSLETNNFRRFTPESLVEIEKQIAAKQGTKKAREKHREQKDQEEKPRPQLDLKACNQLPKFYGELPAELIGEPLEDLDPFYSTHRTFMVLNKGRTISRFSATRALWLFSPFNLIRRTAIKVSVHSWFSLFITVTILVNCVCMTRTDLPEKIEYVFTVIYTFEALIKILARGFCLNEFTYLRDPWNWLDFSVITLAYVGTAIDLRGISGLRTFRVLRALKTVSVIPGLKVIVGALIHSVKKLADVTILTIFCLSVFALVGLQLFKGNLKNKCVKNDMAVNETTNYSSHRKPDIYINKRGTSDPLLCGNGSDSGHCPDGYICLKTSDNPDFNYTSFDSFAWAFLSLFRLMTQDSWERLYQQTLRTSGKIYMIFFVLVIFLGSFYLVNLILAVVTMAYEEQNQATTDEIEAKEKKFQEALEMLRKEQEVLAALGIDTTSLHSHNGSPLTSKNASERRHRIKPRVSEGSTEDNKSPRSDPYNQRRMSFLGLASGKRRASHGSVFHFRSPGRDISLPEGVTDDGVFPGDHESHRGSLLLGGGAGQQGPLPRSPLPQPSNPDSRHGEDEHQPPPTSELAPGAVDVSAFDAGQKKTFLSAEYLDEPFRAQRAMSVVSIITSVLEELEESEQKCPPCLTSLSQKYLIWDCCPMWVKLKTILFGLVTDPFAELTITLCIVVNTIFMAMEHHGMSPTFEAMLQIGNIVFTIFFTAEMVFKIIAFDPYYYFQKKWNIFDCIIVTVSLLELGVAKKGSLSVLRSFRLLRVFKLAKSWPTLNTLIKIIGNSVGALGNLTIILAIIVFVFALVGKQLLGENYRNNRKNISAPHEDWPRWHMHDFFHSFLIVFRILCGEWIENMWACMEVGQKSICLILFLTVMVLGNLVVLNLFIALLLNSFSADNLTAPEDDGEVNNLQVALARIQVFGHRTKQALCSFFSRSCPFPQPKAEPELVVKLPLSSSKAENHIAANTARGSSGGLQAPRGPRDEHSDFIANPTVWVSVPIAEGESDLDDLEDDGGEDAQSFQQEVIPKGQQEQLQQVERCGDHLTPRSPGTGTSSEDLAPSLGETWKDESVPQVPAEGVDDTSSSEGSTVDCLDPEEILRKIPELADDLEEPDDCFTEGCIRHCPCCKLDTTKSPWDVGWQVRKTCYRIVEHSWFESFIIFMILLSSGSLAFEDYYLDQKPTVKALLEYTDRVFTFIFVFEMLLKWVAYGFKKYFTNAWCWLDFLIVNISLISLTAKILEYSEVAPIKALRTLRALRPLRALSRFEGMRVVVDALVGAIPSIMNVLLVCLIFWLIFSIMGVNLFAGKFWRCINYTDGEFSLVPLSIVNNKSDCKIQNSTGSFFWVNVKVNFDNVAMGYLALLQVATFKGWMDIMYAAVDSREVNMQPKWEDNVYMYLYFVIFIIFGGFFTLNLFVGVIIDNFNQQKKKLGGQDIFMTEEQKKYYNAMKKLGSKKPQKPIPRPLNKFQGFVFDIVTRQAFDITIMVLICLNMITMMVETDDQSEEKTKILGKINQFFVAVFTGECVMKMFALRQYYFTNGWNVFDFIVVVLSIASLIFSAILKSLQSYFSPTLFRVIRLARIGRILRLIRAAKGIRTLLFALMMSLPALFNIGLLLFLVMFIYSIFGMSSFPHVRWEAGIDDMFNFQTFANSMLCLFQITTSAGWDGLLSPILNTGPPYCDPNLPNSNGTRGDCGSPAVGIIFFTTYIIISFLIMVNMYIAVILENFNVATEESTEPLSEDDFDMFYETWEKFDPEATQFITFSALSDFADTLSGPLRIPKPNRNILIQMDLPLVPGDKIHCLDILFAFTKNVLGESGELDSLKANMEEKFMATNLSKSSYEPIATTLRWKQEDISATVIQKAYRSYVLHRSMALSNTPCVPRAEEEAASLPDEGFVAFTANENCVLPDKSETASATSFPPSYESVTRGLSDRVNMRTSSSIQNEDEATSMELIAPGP
T8 sequence (Q9UQD0 whole entry): as the sequence (Q9UQD0 whole entry N1768D) above, with D1768N counted along it
T5 sequence (Q9UQD0 whole entry): as the sequence (Q9UQD0 whole entry N1768D) above, with D1768N counted along it
T3 sequence (Q9UQD0 whole entry N984K): as the sequence (Q9UQD0 whole entry N1768D) above, with N984K, D1768N counted along it
T2 sequence (Q9UQD0 whole entry R223G): as the sequence (Q9UQD0 whole entry N1768D) above, with R223G, D1768N counted along it

For `COC(F)(F)c1nnc2cnc(-c3ccc(O[C@H](C)C(F)(F)F)nc3)cn12` [Compound 62, 3-[difluoro(methoxy)methyl]-6-[6-[(1R)-2,2,2-trifluoro-1-methyl-ethoxy]-3-pyridyl]-[1,2,4]triazolo[4,3-a]pyrazine], the inhibition at 1 µM [1] was over 70%, the “Mean latency to tonic extension” value ([2]; 1 mg/kg PO) was 17.6 s and the “Mean latency to tonic extension” value ([2]; 3 mg/kg PO) was 46.1 s. For the same compound, the inhibition at 1 µM [3] was under 50%, the inhibition at 1 µM [4] was over 50% and the inhibition at 1 µM [5] was over 50%. For the same compound, the inhibition at 1 µM [6] was over 70%, the “hNav1.2 Peak INa” value [7] was “B (inhibition of greater than 50%)” and the “hNav1.1 Peak INa” value [8] was “B (inhibition of greater than 50%)”. For the same compound, the inhibition at 1 µM [9] was over 50%, the inhibition at 1 µM [10] was over 50% and the inhibition at 1 µM [11] was over 50%. The inhibition at 1 µM [12] was over 50%.
